Experiments:
[1] = tested on: GPI anchor-deficient RETs (Pig-A locus); experiment: Pig-A mutation assay: frequency of mutant phenotype RETs, mice; assay type: in vivo; conditions: male CD-1 mice, 40 mg/kg/day oral gavage Days 1-3, FIG. 8C
Description: (§1) The cross-species potential of this assay is illustrated by this example, whereby male CD-1 mice were treated on three consecutive days (Day 1, 2 and 3) with N-ethyl-N-nitrosourea (ENU) via oral gavage. The dose levels were 0 or 40 mg/kg/day. Blood harvests occurred on Days 4, 15, 30, 45 and 90 (n=5 per time point per dose). Whereas the rat experiments described in Examples 2-4 above were based on serial blood draws, the mouse experiments were not. Rather, each mouse provided only one blood specimen, thereby requiring like-treated groups of animals to generate the data for each time point studied. This was done to eliminate the possible confounding effect that repeat-blood sampling may have had on the results given the low total blood volume associated with this particular small animal model.

[2] = tested on: reticulocytes; experiment: frequency of reticulocytes (% RET) in peripheral blood, flow cytometry, rats; assay type: in vivo; conditions: male Wistar rats, FIG. 5A
Description: These in vivo experiments utilized naïve rats and focused on the development of simple and reproducible methods for staining and analyzing peripheral blood RBCs and RETs for the GPI anchor-deficient phenotype. As reported elsewhere, it was confirmed that the GPI-anchored protein CD59 is highly and stably expressed on RBCs throughout their lifespan in circulation (Hernández-Campo et al., “Quantitative Analysis of the Expression of Glycosylphosphatidylinositol-Anchored Proteins During the Maturation of Different Hematopoietic Cell Compartments of Normal Bone Marrow,” Cytometry 72B:34-42 (2007), which is hereby incorporated by reference in its entirety). […] A second fluorescent reagent, SYTO® 13 dye, was chosen to differentially stain NCEs, RETs, and leukocytes. […] Secondly, it provided better fluorescent resolution between NCEs, RETs and blood leukocytes. The separation of these latter two populations is particularly important, because not all leukocytes express CD59, and these cells can therefore be mistaken for GPI anchor-deficient RBCs if they are not excluded from analysis. […]
The prior three-color staining strategy outlined above has been described in Bryce et al., “In vivo mutation assay based on the endogenous Pig-a locus”, Environ. […] Samples processed in this manner were evaluated with and without the anti-platelet antibody, and virtually identical values were consistently obtained. […]

[3] = tested on: GPI anchor-deficient RBCs (Pig-A locus); experiment: Pig-A mutation assay: frequency of mutant phenotype RBCs, mice; assay type: in vivo; conditions: male CD-1 mice, 40 mg/kg/day oral gavage Days 1-3, FIG. 8B
Description: as §1

[4] = tested on: GPI anchor-deficient RBCs (Pig-A locus); experiment: Pig-A mutation assay: frequency of GPI anchor-deficient (mutant phenotype) RBCs, rats; assay type: in vivo, Wistar rats
Description: (§2) These in vivo experiments utilized naïve rats and focused on the development of simple and reproducible methods for staining and analyzing peripheral blood RBCs and RETs for the GPI anchor-deficient phenotype. As reported elsewhere, it was confirmed that the GPI-anchored protein CD59 is highly and stably expressed on RBCs throughout their lifespan in circulation (Hernández-Campo et al., “Quantitative Analysis of the Expression of Glycosylphosphatidylinositol-Anchored Proteins During the Maturation of Different Hematopoietic Cell Compartments of Normal Bone Marrow,” Cytometry 72B:34-42 (2007), which is hereby incorporated by reference in its entirety). […] A second fluorescent reagent, SYTO® 13 dye, was chosen to differentially stain NCEs, RETs, and leukocytes. […] Secondly, it provided better fluorescent resolution between NCEs, RETs and blood leukocytes. The separation of these latter two populations is particularly important, because not all leukocytes express CD59, and these cells can therefore be mistaken for GPI anchor-deficient RBCs if they are not excluded from analysis. Early staining trials also included a third fluorescent reagent, anti-platelet antibody (biotinylated anti-CD61 plus streptavidin-Cy5-PE), which was added to positively identify platelets and prevent platelets from interfering with the RBC-centric analyses.
(§3) The prior three-color staining strategy outlined above has been described in Bryce et al., “In vivo mutation assay based on the endogenous Pig-a locus”, Environ. Molec. Mutagen. 49:256-264 (2008) as well as U.S. Patent Application Publ. […] Samples processed in this manner were evaluated with and without the anti-platelet antibody, and virtually identical values were consistently obtained. […]
(§4) The thresholding technique is based on the fact that the vast majority of Lympholyte® processed blood cells are mature RBCs. […] In this case, it is possible to set the threshold parameter to the nucleic acid dye-associated fluorescence channel (i.e., FL1 for SYTO® 13), as opposed to the more common forward scatter trigger. […]

[5] = tested on: reticulocytes; experiment: frequency of reticulocytes (% RET) in peripheral blood, flow cytometry, mice; assay type: in vivo; conditions: male CD-1 mice, 40 mg/kg/day oral gavage Days 1-3, FIG. 8A
Description: as §1

[6] = tested on: GPI anchor-deficient RETs (Pig-A locus); experiment: Pig-A mutation assay: frequency of GPI anchor-deficient (mutant phenotype) RETs, rats; assay type: in vivo, Wistar rats
Description: as §2, §3, §4

CCN(N=O)C(N)=O [ENU, N-ethyl-N-nitrosourea]
frequency of mutant phenotype RETs ([1]; Day 15): greatly elevated | frequency of mutant phenotype RETs ([1]; through Day 90): Robust increases in mutant cell frequency | frequency of reticulocytes (% RET) ([2]; 20 or 40 mg/kg/day oral gavage Days 1-3, vs vehicle control): mean % RET are reduced in a dose-dependent manner | frequency of reticulocytes (% RET), rebound effect ([2]; high dose group (40 mg/kg/day oral gavage Days 1-3), vs control values): “overshoots” the control values | frequency of mutant phenotype RBCs ([3]; by Day 15): increased mutant cell frequencies | day on which maximum mutant RBC frequency is apparent ([3]; stable thereafter through Day 90): 30 days | frequency of mutant phenotype RBCs ([4]; male Wistar rats, 1, 5, 10 or 15 mg/kg/day oral gavage on 14 consecutive days, blood Day 23, FIG. 7A): very robust, dose-related increase in mutant cells | frequency of mutant phenotype (GPI anchor-deficient) RBCs ([4]; male Wistar rats, 20 or 40 mg/kg/day oral gavage Days 1-3, Day 15 through Day 90, FIG. 5B): Robust, dose-related increases in mutant cell frequency | day on which maximal mutant RBC frequency is reached ([4]; male Wistar rats, 20 or 40 mg/kg/day oral gavage Days 1-3, plateau thereafter, FIG. 5B): ≤ 45 days | frequency of reticulocytes (% RET) ([5]; Day 4): significantly reduced | frequency of reticulocytes (% RET), rebound effect ([5]; Day 15, vs control values): “overshoots” the control values | frequency of mutant phenotype RETs ([6]; male Wistar rats, 1, 5, 10 or 15 mg/kg/day oral gavage on 14 consecutive days, blood Day 23, FIG. 7B): very robust, dose-related increase in mutant cells | day on which maximal or near-maximal mutant RET frequency is reached ([6]; male Wistar rats, 20 or 40 mg/kg/day oral gavage Days 1-3, FIG. 5C): 15 days | frequency of mutant phenotype (GPI anchor-deficient) RETs ([6]; male Wistar rats, 20 or 40 mg/kg/day oral gavage Days 1-3, evident by Day 15, FIG. 5C): Robust, dose-related increases in mutant cell frequency

Reference: patent US8187826B2, “Quantitative analysis of in vivo mutation at the Pig-A locus” (Litron Laboratories, Ltd., priority 2008, dated 2012)
